{"source": "patent US20100016331A1", "about": "“NOVEL COMPOUNDS” (priority 2006, published 2010)", "key": {"glucocorticoid receptor": {"target": "T1, glucocorticoid receptor (Homo sapiens, UniProt P04150)", "T1 construct": "a partially purified full length glucocorticoid receptor were added to the plates", "T1 sequence (P04150 1-777)": "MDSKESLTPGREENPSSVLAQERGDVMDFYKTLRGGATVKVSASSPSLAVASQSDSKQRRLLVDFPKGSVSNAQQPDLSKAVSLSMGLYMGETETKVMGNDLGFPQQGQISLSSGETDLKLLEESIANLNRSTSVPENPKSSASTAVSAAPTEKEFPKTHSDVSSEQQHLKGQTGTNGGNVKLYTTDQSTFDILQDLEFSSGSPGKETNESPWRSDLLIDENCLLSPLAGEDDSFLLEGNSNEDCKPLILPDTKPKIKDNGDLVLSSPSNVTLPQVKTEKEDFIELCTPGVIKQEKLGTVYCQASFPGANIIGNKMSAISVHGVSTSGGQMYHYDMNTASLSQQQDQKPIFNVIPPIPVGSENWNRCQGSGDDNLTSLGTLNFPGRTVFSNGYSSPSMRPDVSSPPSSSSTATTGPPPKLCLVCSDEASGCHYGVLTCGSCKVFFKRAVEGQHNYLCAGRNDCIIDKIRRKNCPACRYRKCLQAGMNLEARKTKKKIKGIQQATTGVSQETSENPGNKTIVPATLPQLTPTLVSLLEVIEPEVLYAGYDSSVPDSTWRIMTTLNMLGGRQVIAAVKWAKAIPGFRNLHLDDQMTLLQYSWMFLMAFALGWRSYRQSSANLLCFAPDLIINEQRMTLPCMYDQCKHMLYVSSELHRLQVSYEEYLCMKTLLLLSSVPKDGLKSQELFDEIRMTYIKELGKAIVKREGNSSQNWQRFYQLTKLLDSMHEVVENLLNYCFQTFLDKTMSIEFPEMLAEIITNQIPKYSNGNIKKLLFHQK", "experiment": "Glucocorticoid Receptor Binding Assay (fluorescence polarisation, competition with Alexa 555 labelled dexamethasone derivative)", "conditions": "displacement of fluorescent dexamethasone, partially purified full length glucocorticoid receptor, 2 hours at room temperature; read-out: glucocorticoid binding pIC50 (converted)", "protocol": "Glucocorticoid Receptor Binding Assay\nThe ability of compounds to bind to the glucocorticoid receptor was determined by assessing their ability to compete with an Alexa 555 fluorescently-labelled dexamethasone derivative. Compounds were solvated and dilutedin DMSO, and transferred directly into assay plates. Fluorescent dexamethasone and a partially purified full length glucocorticoid receptor were added to the plates, together with buffer components to stabilise the GR protein (including stabilisation peptide (Panvera catalogue number P2815)) andincubated at room temperature for 2 hours in the dark. Binding of each compound was assessed by analysing the displacement of fluorescent ligand by measuring the decrease in fluorescence polarisation signal from the mixture."}, "NFkB Activity": {"system": "NFkB Activity", "experiment": "Glucocorticoid Mediated Transrepression of NFkB Activity (A549 cells, NFkB dependent ELAM promoter, secreted placental alkaline phosphatase reporter, TNFα stimulated)", "format": "cell-based", "conditions": "Human A549 lung epithelial cells, 3 ng/ml human recombinant TNFα, 16 hr; read-out: pEC50, transrepression of NFkB activity (converted)", "text": "Glucocorticoid Mediated Transrepression of NFkB Activity\nHuman A549 lung epithelial cells were engineered to contain a secreted placental alkaline phosphatase gene under the control of the distal region of the NFkB dependent ELAM promoter as previously described in Ray, K. P., Farrow, S., Daly, M., Talabot, F. and Searle, N. “Induction of the E-selectin promoter by interleukin 1 and tumour necrosis factor alpha, andinhibition by glucocorticoids” Biochemical Journal (1997) 328: 707-15.\nCompounds were solvated and dilutedin DMSO, and transferred directly into assay plates such that the final concentration of DMSO was 0.7%. Following the addition of cells (40K per well), plates were incubated for 1 hr prior to the addition of 3 ng/ml human recombinant TNFα. Following continued incubation for 16 hr, alkaline phosphatase activity was determined by measuring the change in optical density at 405 nm with time following the addition of 0.7 volumes of assay buffer (1 mg/ml p-nitrophenylphosphate dissolvedin 1M diethanolamine, 0.28M NaCl, 0.5 mM MgCl2). Dose response curves were constructed from which EC50 values were estimated."}}, "data": [{"smiles": "COc1ccc(F)cc1C(C)(C)CC(O)(CNc1cc(C)cc2c1cnn2-c1cccc(C(=O)N[C@H]2CCOC2=O)c1)C(F)(F)F", "note": "(single isomer, unassigned) [Example 21-A]", "values": [{"measurement": "IC50", "setting": "glucocorticoid receptor", "value": "< 316", "unit": "nM"}, {"measurement": "EC50", "setting": "NFkB Activity", "value": "< 10", "unit": "nM"}]}]}
